Data taken from patent EP0159194B1, “Iron 3-hydroxypyrone or 3-hydroxypyridone complexes and pharmaceutical compositions containing them” (priority 1984, dated 1985).

Target: apotransferrin (Homo sapiens, UniProt P02787)
Assay: Donation of iron to apotransferrin (59Fe, Sephadex G10 separation)
Type: biochemical
Details: 5 x 10^-5M apotransferrin, 1 x 10^-4M iron, pH 7.4
Procedure: (Maltol)2 (ascorbic acid) iron(III) was prepared in situ by dissolving maltol and ascorbic acid in a 2:1 molar ratio in an aqueous medium containing morpholine propane sulphonate (MOPS, 25 mM) and sodium hydrogen carbonate (30 mM), the pH being adjusted to 7.4 with hydrochloric acid (50% v/v). To the medium was added a solution of ^59Fe enriched ferric chloride in 0.1 M aqueous hydrochloric acid containing a molar amount of iron equivalent to that of the ascorbic acid. Equal volumes of the solution of the iron complex and of apotransferrin in the same aqueous medium were mixed to provide concentrations in the mixture of 5 x 10-^5M of apotransferrin and 1 x 10-^4M of iron.
The mixture was incubated at room temperature in separate experiments for 10 and 60 minutes and an aliquot was then added to a Sephadex G10 column equilibrated with the same aqueous medium described above and the column eluted with that medium, fractions being collected and counted. The percentages of ^59Fe associated with apotransferrin and with ligands are calculated as cpm iron-apotransferrin/total cpm and cpm iron-(maltol)2 (ascorbic acid)/total cpm.

[1] = after 10 minutes at room temperature
[2] = after 60 minutes at room temperature

apotransferrin, sequence (P02787 20-698): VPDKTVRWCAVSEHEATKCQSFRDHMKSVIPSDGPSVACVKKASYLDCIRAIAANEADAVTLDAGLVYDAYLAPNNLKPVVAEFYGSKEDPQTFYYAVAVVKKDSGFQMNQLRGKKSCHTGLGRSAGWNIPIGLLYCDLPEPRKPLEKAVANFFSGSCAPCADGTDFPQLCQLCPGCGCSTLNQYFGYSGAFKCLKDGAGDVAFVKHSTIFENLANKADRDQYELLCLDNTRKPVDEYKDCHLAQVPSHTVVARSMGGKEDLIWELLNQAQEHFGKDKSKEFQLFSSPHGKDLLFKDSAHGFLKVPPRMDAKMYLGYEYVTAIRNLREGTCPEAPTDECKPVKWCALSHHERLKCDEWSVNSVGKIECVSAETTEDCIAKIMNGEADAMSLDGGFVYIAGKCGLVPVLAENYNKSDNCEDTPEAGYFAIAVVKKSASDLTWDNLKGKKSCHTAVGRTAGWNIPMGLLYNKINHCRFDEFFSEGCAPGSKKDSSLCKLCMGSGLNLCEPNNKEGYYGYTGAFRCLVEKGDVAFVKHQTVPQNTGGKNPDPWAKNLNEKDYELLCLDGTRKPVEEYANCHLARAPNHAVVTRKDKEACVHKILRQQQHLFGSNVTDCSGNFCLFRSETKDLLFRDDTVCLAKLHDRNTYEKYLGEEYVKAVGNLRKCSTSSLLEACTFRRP

- 59Fe associated with apotransferrin [1]: 43%
- 59Fe associated with the ligands [1]: 57%
- 59Fe donated to the apotransferrin [2]: 75%
- 59Fe remaining associated with the ligands [2]: 25%
Substance: (maltol)2 (ascorbic acid) iron(III) complex
